Reference: a melting point compilation (Tetko et al.; mined from patent text by program, amines drawn as free bases though some values may be those of a salt)

| melting point [°C] | Compound |
| --- | --- |
| 185 to 186 | O=C(NCc1ccc(Cl)cc1)c1cnc2sc(CCCO)cc2c1O |
| 156 to 157 | O=C1C2CCCN2c2ccccc2N1Cc1ccccc1 (stereo not given) |
| 127 to 129 | C=C1CCC(C(O)C(N)=O)CC1 (stereo not given) |
| 74 to 76 | OCCc1coc2c(OC3CCCCO3)cccc12 (stereo not given) |
| 50 to 51 | ClCCCCc1nnnn1C1CCCCC1 |
| 228 to 230 | COc1cc(N)c(Br)cc1C(=O)NC1CCN(CC2CCN(C(N)=O)CC2)CC1 |
| 118 to 120 | CC1CCCCN1CCCNC(=O)c1ccccc1C(c1ccc(O)cc1)c1ccc(O)cc1 (stereo not given) |

The remaining lines, values behind:

| Compound | melting point [°C] |
| --- | --- |
| CC(=NOCC(=O)O)c1ccc(Cl)cc1 | 116 |
| Cc1c(C=C(C#N)C#N)cc(C(C)(C)C)c(O)c1Br | 144 |
| Clc1cc(N2Cc3ccccc3C2)nc2ccccc12 | 172 to 173 |
| CCCCCCCCC(=CC=C(O)C(=O)OCC)C(=O)OCC | 58 |
| CCCCCCC(O)CCCCCCCCCCC(=O)NCC(O)CNCCO (stereo not given) | 97.7 to 99.6 |
| CC(C)CNC(=O)c1cccnc1Oc1cccc(Cl)c1 | 86 to 87 |
| O=C(O)c1cn(-c2ccc(F)cc2)c2cc(-c3ccncc3)ccc2c1=O | 280 to 281 |
| C[C@](O)(COc1ccc(C#N)c(F)c1)C(=O)Nc1ccc(C#N)c(C(F)(F)F)c1 | 124 to 125 |
| Cc1c(C)c2c(c(C)c1NCc1ccccc1)C(c1cccc(C3OCCO3)c1)CO2 (stereo not given) | 97 to 99 |
| CCCCCCCNC(=O)Nc1ccc(N(C)C)cc1C(=O)NCC1CCN(C(c2ccc(OC)cc2)c2ccc(OC)cc2)CC1 | 163 |
| COC(=O)C(c1ccc(N)cc1)C1CC1 (stereo not given) | 68 to 69 |
| CCCCCCCCCCCCCCCc1cc2ccc(C(=O)O)cc2[nH]1 | 140 to 142 |
| CCCS(=O)(=O)Oc1c(C(=O)c2nn(C)c(=O)n(-c3ccccc3)c2=O)cnn1C(C)C | 51 to 53 |
